In article PMC8624998, “Synthesis and Antiproliferative Evaluation of 3-Chloroazetidin-2-ones with Antimitotic Activity: Heterocyclic Bridged Analogues of Combretastatin A-4” (Pharmaceuticals, 2021):

Columns and labels:
Mcl-1 = assay: Western blot analysis; assay type: cell-based, human; details: MCF-7, 0.05, 0.1 and 0.5 μM, 48 or 72 h
From the text: (§1) The apoptosis regulating proteins Bcl-2 and Mcl-1 were next investigated. The anti-apoptotic or pro-survival Bcl-2 protein is also a member of the Bcl-2 family. It prevents the release of a pro-apoptotic AIF (apoptosis inducing factor) and cytochrome c from the mitochondria into the cytoplasm and prevents apoptosis by sequestering caspases (apoptosis promoters). […] (Figure 9). Mcl-1 protein (an induced myeloid leukaemia cell differentiation protein) is another key anti-apoptotic member of the Bcl-2 family and is localised in the mitochondrial outer membrane. It binds and sequesters the pro-apoptotic Bax/Bak proteins and, thus, prevents the release of cytochrome c. Overexpression of the anti-apoptotic factors Mcl-1, Bcl-2 and Bcl-xL in acute myeloid leukaemia and acute lymphocytic leukaemia may be associated dysregulation of apoptosis. […] (Figure 10). Apoptosis can be triggered by a reduction in the expression levels of Mcl-1 and Bcl-2 (e.g., by drug treatment). […]
(§2) MCF-7 cells were seeded at a density of 1 × 10^5 cells/flask in T25 flasks. […] Equal quantities of protein (as determined using a BCA assay) were resolved by SDS-PAGE (12%) followed by transfer to PVDF membranes. […] Proteins were detected using enhanced chemiluminescent Western blot detection (Clarity Western ECL substrate) (Bio Rad) on the ChemiDoc MP System (Bio Rad). […]

Bcl-2 = assay: Western blot analysis; assay type: cell-based, human; details: MCF-7, 0.05, 0.1 and 0.5 μM, 48 or 72 h
From the text: as §1, §2

K-562 = assay: NCI-60 5 dose screen, leukaemia; assay type: cell-based; details: Homo sapiens, K562

SMILES | level of anti-apoptotic protein Mcl-1 (Mcl-1) | level of anti-apoptotic protein Bcl-2 (Bcl-2) | GI50 (K-562) [nM]
COc1ccc(C2C(Cl)C(=O)N2c2cc(OC)c(OC)c(OC)c2)cc1O (stereo not drawn) [Compound 10n, 3-Chloro-4-(3-hydroxy-4-methoxy-phenyl)-1-(3,4,5-trimethoxyphenyl)azetidin-2-one] | downregulated in a dose-dependent manner | downregulated in a dose-dependent manner | –
CCSc1ccc(C2C(Br)C(=O)N2c2cc(OC)c(OC)c(OC)c2)cc1 (stereo not drawn) [Compound 16d, 3-Bromo-4-(4-(ethylthio)phenyl)-1-(3,4,5-trimethoxyphenyl)azetidin-2-one] | – | – | 54.5
